From US12018023B2 (NERVIANO MEDICAL SCIENCES S.R.L., priority 2018, dated 2024) come the findings set out here.

pIC50: −log10 of the molar value.

For one experiment, the target named is T1, IDH1^R132C (Homo sapiens, UniProt O75874, R132C).
T1 construct: purchased not specified
Nature of the experiment: NADPH depletion assay, IDH1 R132C. Type of experiment: biochemical. On the procedure: (§1) IDH mutated enzyme activity converting alpha-ketoglutarate to 2-hydroxyglutaric acid is measured using a NADPH depletion assay. In the assay the remaining cofactor is measured at the end of the reaction with the addition of a catalytic excess of diaphorase and resazurin, to generate a fluorescent signal in proportion to the amount of NADPH remaining. IDH1 WT enzyme as well as mutated isoforms IDH1^R132H, IDH1^R132C, and IDH^2R172K enzymes are commercially available proteins (see e.g. Sino Biological, Abcam, Active Motif or Creative BioMart).
(§2) IDH1^R132H homodimer enzyme are diluted to 8 nM, in 10 μL of Assay Buffer (150 mM NaCl, 50 mM Tris-HCl pH 7.6, 10 mM MgCl2, 0.001% Triton X-100, 4 mM β-mercaptoethanol); 0.2 uL of test compound, previously serially diluted 1 to 3, >10 experimental points from 1 mM in DMSO, is added and the mixture is incubated for 15 minutes at room temperature. The reaction is started with the addition of 10 μL of Substrate Mix (12 uM NADPH, 3.4 mM alpha-ketoglutarate in Assay Buffer) and the mixture is incubated for 60 minutes at room temperature. The reaction is terminated with the addition of 5 μl of Detection Buffer (100 μg/mL diaphorase, 30 μM resazurin, in IX Assay Buffer), and is incubated for 15 minute before reading on a ViewLux as platereader at Ex544/Em590.
Compounds are assayed for their activity against IDH1^R132C following the same assay as above with the following modifications: IDH1^R132C and alpha-ketoglutarate final concentrations in the Assay Buffer is 2 nM and 0.14 mM, respectively.

For experiment [1], the target named is T2, IDH1^R132H homodimer enzyme (Homo sapiens, UniProt O75874, R132H).
T2 construct: purchased not specified
Briefly: NADPH depletion assay, IDH1 R132H. It is filed as biochemical. As for the experimental part:
as §1, §2

T1 sequence (O75874 whole entry R132C): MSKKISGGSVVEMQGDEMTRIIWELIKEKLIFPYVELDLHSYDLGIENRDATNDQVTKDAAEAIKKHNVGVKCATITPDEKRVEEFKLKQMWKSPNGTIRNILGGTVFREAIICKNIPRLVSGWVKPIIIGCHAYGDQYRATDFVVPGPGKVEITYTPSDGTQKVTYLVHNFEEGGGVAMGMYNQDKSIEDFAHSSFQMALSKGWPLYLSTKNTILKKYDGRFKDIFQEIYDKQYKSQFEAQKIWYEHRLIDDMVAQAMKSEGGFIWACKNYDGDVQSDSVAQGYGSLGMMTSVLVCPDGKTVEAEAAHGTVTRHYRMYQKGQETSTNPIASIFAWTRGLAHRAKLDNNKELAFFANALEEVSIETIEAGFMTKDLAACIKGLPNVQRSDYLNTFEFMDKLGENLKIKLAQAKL
T2 sequence (O75874 whole entry R132H): as the sequence (O75874 whole entry R132C) above, with C132H counted along it

With `CC(C)C(=O)N1CCC(Oc2ccc([C@H](C)Nc3ncc4ccc(=O)n([C@@H](C)C(C)C)c4n3)cc2)CC1` [cpd 160, 8-((S)-1,2-Dimethyl-propyl)-2-{(S)-1-[4-(1-isobutyryl-piperidin-4-yloxy)-phenyl]-ethylamino}-8H-pyrido[2,3-d]pyrimidin-7-one], the pIC50 (usually the IC50 on a negative log10 scale, so that one unit is a factor of ten) against IDH1^R132C is 7.51; in experiment [1], 7.17.

For `COc1ccc([C@H](C)Nc2ncc3ccc(=O)n(CC(C)(C)C)c3n2)cc1` [cpd 33, 8-(2,2-dimethylpropyl)-2-{[(1S)-1-(4-methoxyphenyl)ethyl]amino}pyrido[2,3-d]pyrimidin-7(8H)-one], the negative-log IC50 (pIC50) against IDH1^R132C was 6.72; in experiment [1], 6.34.

Consider `C=CC(=O)N1CCN(Cc2ccc([C@H](C)Nc3nc(NC)c4ccc(=O)n(CC(C)(C)C)c4n3)cc2)CC1` [cpd 202, 2-{[(1S)-1-{4-[(4-acryloylpiperazin-1-yl)methyl]phenyl}ethyl]amino}-8-(2,2-dimethylpropyl)-4-(methylamino) pyrido[2,3-d]pyrimidin-7(8H)-one], for which the pIC50 was 6.98 against IDH1^R132C and 6.18 in experiment [1].

As for `COC(=O)c1ccc([C@H](C)Nc2ncc3ccc(=O)n(C(C)C)c3n2)cc1` [cpd 9, methyl 4-[(1S)-1-{[7-oxo-8-(propan-2-yl)-pyrido[2,3-d]pyrimidin-2-yl]amino}ethyl]benzoate], the negative logarithm of the IC50 (pIC50) was 6.22 on IDH1^R132C and 5.82 in experiment [1].

With `CC(C)[C@H](C)n1c(=O)ccc2cnc(N[C@@H](C)c3ccc(-c4ccnc(C(F)(F)F)c4)cn3)nc21` [cpd 196, 8-[(2S)-3-methylbutan-2-yl]-2-({(1S)-1-[2′-(trifluoromethyl)-3,4′-bipyridin-6-yl]ethyl}amino)pyrido[2,3-d]pyrimidin-7(8H)-one], the negative logarithm of the IC50 (pIC50) was 6.85 against IDH1^R132C and 6.02 in experiment [1].

On to `C[C@H](Nc1ncc2ccc(=O)n(CC(F)(F)F)c2n1)c1ccc(Cl)cc1` [cpd 18, 2-{[(1S)-1-(4-chlorophenyl)ethyl]amino}-8-(2,2,2-trifluoroethyl)pyrido[2,3-d]pyrimidin-7(8H)-one], for which the values for the negative logarithm of the IC50 (pIC50) (on IDH1^R132C; in experiment [1]) were 5.81 and 5.39, respectively.

With `CC(C)[C@H](C)n1c(=O)ccc2cnc(N[C@@H](C)c3ccc(C4=CCN(C(=O)C5CC5)CC4)cn3)nc21` [cpd 195, 2-({(1S)-1-[1′-(cyclopropylcarbonyl)-1′,2′,3′,6′-tetrahydro-3,4′-bipyridin-6-yl]ethyl}amino)-8-[(2S)-3-methylbutan-2-yl]pyrido[2,3-d]pyrimidin-7(8H)-one], the results for the negative-log IC50 (pIC50) (on IDH1^R132C; in experiment [1]) were 6.74 and 6.23, respectively.

Turning to `C[C@H](Nc1ncc2ccc(=O)n(Cc3ccc(O)cc3)c2n1)c1ccc(Cl)cc1` [cpd 72, 2-{[(1S)-1-(4-chlorophenyl)ethyl]amino}-8-(4-hydroxybenzyl)pyrido[2,3-d]pyrimidin-7(8H)-one], the results for the negative-log IC50 (pIC50) (against IDH1^R132C; in experiment [1]) were 5.91 and 5.59, respectively.

On to `C[C@H](Nc1ncc2ccc(=O)n(CC(C)(C)C)c2n1)c1ccc(C(=O)NC2CCCC2)cc1` [cpd 80, N-cyclopentyl-4-[(1S)-1-{[8-(2,2-dimethylpropyl)-7-oxo-pyrido[2,3-d]pyrimidin-2-yl]amino}ethyl]benzamide], for which the negative logarithm of the IC50 (pIC50) was 6.55 against IDH1^R132C and 6.35 in experiment [1].

Turning to `Cc1nc(N[C@@H](C)c2ccc(CN3CCC(F)(F)CC3)cc2)nc2c1ccc(=O)n2CC(C)C` [cpd 118], the results for the negative logarithm of the IC50 (pIC50) (against IDH1^R132C; in experiment [1]) were 6.03 and 5.89, respectively.

For the molecule `C[C@H](Nc1ncc2ccc(=O)n(CC(C)(C)C(=O)O)c2n1)c1ccc2ccccc2c1` [cpd 121, 2,2-dimethyl-3-[2-{[(1S)-1-(naphthalen-2-yl)ethyl]amino}-7-oxopyrido[2,3-d]pyrimidin-8(7H)-yl]propanoic acid], the negative logarithm of the IC50 (pIC50) on IDH1^R132C was 5.79; in experiment [1] it was 5.41.

Take `C[C@H](Nc1ncc2ccc(=O)n(CC(C)(C)C)c2n1)c1ccc(O)cc1` [cpd 145, 8-(2,2-Dimethyl-propyl)-2-[(S)-1-(4-hydroxy-phenyl)-ethylamino]-8H-pyrido[2,3-d]pyrimidin-7-one]: the results for the negative-log IC50 (pIC50) (on IDH1^R132C; in experiment [1]) were 5.88 and 5.45, respectively.

With `C[C@H](Nc1ncc2ccc(=O)n(CC(C)(C)C)c2n1)c1ccc(S(C)(=O)=O)cc1` [cpd 137, 8-(2,2-dimethylpropyl)-2-({(1S)-1-[4-(methylsulfonyl)phenyl]ethyl}amino)pyrido[2,3-d]pyrimidin-7(8H)-one], the negative logarithm of the IC50 (pIC50) at IDH1^R132C is 5.89; in experiment [1], 5.46.

Turning to `Cc1cc(=O)n(CC(C)(C)C)c2nc(N[C@@H](C)c3ccc(CN4CCCC(F)(F)C4)cc3)ncc12` [cpd 60, 2-{(S)-1-[4-(3,3-Difluoro-piperidin-1-ylmethyl)-phenyl]-ethylamino}-8-(2,2-dimethyl-propyl)-5-methyl-8H-pyrido [2,3-d]pyrimidin-7-one], the values for the pIC50 (against IDH1^R132C; in experiment [1]) were 6.86 and 6.47, respectively.

Consider `C[C@H](Nc1ncc2ccc(=O)n(Cc3c(F)cccc3F)c2n1)c1ccc(CO)cc1` [cpd 92, 8-(2,6-difluorobenzyl)-2-({(1S)-1-[4-(hydroxymethyl)phenyl]ethyl}amino)pyrido[2,3-d]pyrimidin-7(8H)-one], for which the pIC50 (against IDH1^R132C; in experiment [1]) was 6.15 throughout.

On to `C[C@H](Nc1ncc2ccc(=O)n(Cc3c(F)cccc3F)c2n1)c1ccc(C(=O)NC2CCN(C)CC2)cc1` [cpd 76, 4-[(1S)-1-{[8-(2,6-difluorobenzyl)-7-oxo-pyrido[2,3-d]pyrimidin-2-yl]amino}ethyl]-N-(1-methylpiperidin-4-yl)benzamide], for which the figures for the pIC50 (on IDH1^R132C; in experiment [1]) were 5.44 and 5.62, respectively.

Turning to `C[C@@H]1CN(Cc2ccc([C@H](C)Nc3ncc4ccc(=O)n([C@@H](C)C5CC5)c4n3)cc2F)C[C@H](C)O1` [cpd 171, 8-[(1S)-1-cyclopropylethyl]-2-{[(1S)-1-(4-{[(2R,6S)-2,6-dimethylmorpholin-4-yl]methyl}-3-fluorophenyl)ethyl]amino}pyrido[2,3-d]pyrimidin-7(8H)-one], the negative-log IC50 (pIC50) against IDH1^R132C is 7.26; in experiment [1], 6.77.

With `C[C@@H]1CN(Cc2ccc([C@H](C)Nc3ncc4ccc(=O)n([C@@H](C)C(F)(F)F)c4n3)cc2)C[C@H](C)O1` [cpd 164, 2-{[(1S)-1-(4-{[(2R,6S)-2,6-dimethylmorpholin-4-yl]methyl}phenyl)ethyl]amino}-8-[(2S)-1,1,1-trifluoropropan-2-yl]pyrido[2,3-d]pyrimidin-7(8H)-one], the pIC50 at IDH1^R132C is 6.39; in experiment [1], 6.12.

On to `CCCC(C)(CO)Cn1c(=O)ccc2cnc(N[C@@H](C)c3ccc(CN4CCC(F)(F)CC4)cc3)nc21` (stereo partly drawn) [cpd 120, 2-{[(1S)-1-{4-[(4,4-difluoropiperidin-1-yl)methyl]phenyl}ethyl]amino}-8-[2-(hydroxymethyl)-2-methylpentyl]pyrido[2,3-d]pyrimidin-7(8H)-one], for which the negative logarithm of the IC50 (pIC50) at IDH1^R132C is 6.97; in experiment [1], 6.66.

`COC(=O)c1ccc([C@H](C)Nc2ncc3ccc(=O)n(Cc4ccccc4)c3n2)cc1` [cpd 1, Methyl 4-{(1S)-1-[(8-benzyl-7-oxo-pyrido[2,3-d]pyrimidin-2-yl)amino]ethyl}benzoate]: the negative-log IC50 (pIC50) at IDH1^R132C is 6.21; in experiment [1], 5.74.

`CC(Nc1ncc2ccc(=O)n(CC(C)(C)C)c2n1)c1ccc(C(=O)NC2CCC(F)(F)CC2)c(F)c1` (stereo not drawn) [cpd 84, N-(4,4-difluorocyclohexyl)-4-(1-{[8-(2,2-dimethylpropyl)-7-oxo-pyrido[2,3-d]pyrimidin-2-yl]amino}ethyl)-2-fluorobenzamide]: the pIC50 on IDH1^R132C is 6.82; in experiment [1], 6.72.
